The values that follow come from publication PMC9966370, “Biological Evaluation and In Vitro Characterization of ADME Profile of In-House Pyrazolo[3,4-d]pyrimidines as Dual Tyrosine Kinase Inhibitors Active against Glioblastoma Multiforme” (Pharmaceutics, 2023).

Molecules are shown by their SMILES. Like-named read-outs stand apart in the source and are kept apart here. Marks after values point to notes of the source that are not given here. Some results are limits rather than exact numbers.

The conditions of series [1]: HLM, previously published, cited from earlier work; for Metabolite Formation M1: M1 = M − HCl + O.
In series [2] the test system is DBTRG GBM cell line. As to the kind of experiment: antiproliferative activity, MTT assay, DBTRG. It is filed as cell-based. The conditions noted are these: Homo sapiens, 72 h treatment. The procedure:
(§1) Cell-based assays were performed using four GBM cell lines, i.e., U-87, LN18, LN229, and DBTRG, cultured in Dulbecco’s modified Eagle medium (DMEM) (U-87, LN18, and LN229) or Roswell Park Memorial Institute medium (RPMI 1640) (DBTRG). Both media were implemented with 10% fetal bovine serum (FBS), 2 mM L-glutamine, and 10,000 units/mL penicillin/streptomycin at 37 °C in a 5% CO2 atmosphere. […] The final concentration of DMSO used never exceeded 0.5% v/v, and appropriate controls were always performed in each assay. […] These were cultured in DMEM supplemented with 10% FBS, 2 mM L-glutamine, and 10,000 units/mL penicillin/streptomycin at 37 °C in a 5% CO2 atmosphere. The protocol used to assess the cytotoxic effect on both healthy cell lines was the same described above for the antiproliferative assay. For both the antiproliferative and the cytotoxic assays, 3-(4,5-dimethylthiazol-2-yl)-2,5-diphenyltetrazolium bromide (MTT) was used to assess cell viability as previously described. Briefly, 150 μL of MTT (5 mg/mL in FBS-free culture medium) was added to each well, and the plates incubated for 4 h in a 5% CO2 atmosphere at 37 °C. Afterward, formazan violet crystals were solubilized in 150 μL of isopropanol, and the absorbance was quantified at 570 nm using a Multiskan SkyHigh Microplate Spectrophotometer (ThermoFisher, Waltham, MA, USA). Cell viability was expressed as a percentage of DMSO-treated cells (controls), taken as 100%. […] To support MTT data, cytotoxicity assays was always paralleled by a careful observation of cells under a phase-contrast light microscope, as described in USP 28 (United States Pharmacopeia edition 2005) as an alternative method. This analysis was performed by an expert operator blind to the treatment, and exemplificative photos representing the effects of compound 5 on LN229 and DBTRG cells are reported in Figures S2 and S3 (Supplementary Materials).

Series [3] relates to LN229 GBM cell line. As to the kind of experiment: antiproliferative activity, MTT assay, LN229. It is filed as cell-based. The conditions noted are these: Homo sapiens, LN-229, 72 h treatment. The procedure:
as §1

Series [4] concerns LN18 GBM cell line. As to the kind of experiment: antiproliferative activity, MTT assay, LN18. It is filed as cell-based. To be noted: Homo sapiens, LN-18, 72 h treatment. The procedure:
as §1
(Tetrazolium assays rely on reduction of a dye to a coloured formazan, in cell work by metabolically active cells.)

Series [5] relates to fibroblasts FIBRO 2-93. As to the kind of experiment: cytotoxicity on nontumoral healthy cells, MTT assay, FIBRO 2-93. Type of series: cell-based, human.
Experimental: (§4) The protocol used to assess the cytotoxic effect on both healthy cell lines was the same described above for the antiproliferative assay. For both the antiproliferative and the cytotoxic assays, 3-(4,5-dimethylthiazol-2-yl)-2,5-diphenyltetrazolium bromide (MTT) was used to assess cell viability as previously described [20]. […] Afterward, formazan violet crystals were solubilized in 150 μL of isopropanol, and the absorbance was quantified at 570 nm using a Multiskan SkyHigh Microplate Spectrophotometer (ThermoFisher, Waltham, MA, USA). Cell viability was expressed as a percentage of DMSO-treated cells (controls), taken as 100%.
Assay in series [6]: as above
Type of series: cell-based, human. The conditions noted are these: human, FIBRO 2-93 healthy fibroblasts, 72 h treatment, MTT.
Experimental: as §4

In series [7] the test system is U-87 GBM cell line. The conditions noted are these: previously published; cited from earlier work.
In series [8] the test system is keratinocytes HaCaT. Kind of series: cytotoxicity on nontumoral healthy cells, MTT assay, HaCaT. Type of series: cell-based, human. To be noted: 72 h treatment.
Experimental: as §4
Assay in series [9]: as above
To be noted: human, HaCaT keratinocytes, 72 h treatment. Type of series: cell-based, human.
Experimental: as §4

Details of series [10]: method as in PMID 21443205. The conditions noted are these: previously published; cited from earlier work.
Series [11] deals with U-87 GBM cell line. Kind of series: antiproliferative activity, MTT assay, U-87. The conditions noted are these: Homo sapiens, 72 h treatment. Type of series: cell-based. The procedure: as §1
Series [12] is described as follows: PAMPA, BBB permeability. Type of series: in vitro ADME. To be noted: RT; for BBB membrane retention (MR%): 5 h, pH 7.4; for Papp at 5 h, 500 µM: pH 7.4, PAMPA. The procedure: (§2) UV/LC–MS chromatographic analyses were carried out using an Agilent 1100 LC/MSD VL system (G1946C) purchased from Agilent Technologies (Palo Alto, CA, USA). […] The analysis began with 5% B (t = 0–1 min), increased to 95% (t = 1–10 min), maintained at 95% (t = 10–19 min), and finally returned to 5% […]. The analyses were performed at a flow rate of 0.6 mL/min, UV detection was monitored at 254 nm, and spectra were acquired over the scan range of m/z 100–1000 in both positive and negative modes.
(§3) The DMSO stock of each compound was diluted with phosphate buffer (PBS 25 mM, pH 7.4) to a final concentration of 500 µM in order to obtain the “donor”. For GI and BBB permeability, filters were coated with 10 µL of 1% w/v dodecane phosphatidylcholine solution or 5 µL of 10% w/v CHCl3/dodecane brain polar lipid solution. The donor (150 µL) was poured over the artificial membranes on the filter plate. DMSO/PBS (300 µL, 1:1 v/v) was then added to the acceptor wells. After assembling the sandwich plates, the experiments were run for 5 h at room temperature (RT). Lastly, the amount of compound passed though the artificial membranes was determined using the UV/LC–MS method described above. Apparent permeability (Papp) and membrane retention (MR%) were determined as previously described.
On the technique in general: The PAMPA barrier holds no transporters, so it reflects passive diffusion.

The nature of series [13]: metabolic stability assay in human liver microsomes. It is filed as in vitro ADME. To be noted: HLM 0.2 mg/mL, NADPH, 1 h, 37 °C. The procedure:
as §2
Each DMSO compound solution was incubated for 1 h at 37 °C in the presence of 500 µL of PBS (25 mM, pH 7.4), human liver microsomal (HLM) proteins (0.2 mg/mL), and 10 mM NADPH solution in MgCl2 (48 mM). The reactions were stopped with 1.0 mL of cold ACN. The samples were centrifuged (4000 rpm for 10 min), and the supernatants were collected, dried under N2 flow, and suspended in 100 µL of methanol (MeOH). Parent drugs and metabolites were determined using the previously described HPLC/UV–MS method. The percentage metabolic stability was calculated by comparing the metabolized and unmetabolized compounds.
On the technique in general: Microsomes from liver hold many membrane-bound enzymes, among them those of drug oxidation.

The nature of series [14]: PAMPA, GI permeability. It is filed as in vitro ADME. The conditions noted are these: RT. The procedure:
as §2, §3

Series [15] deals with T1, c-Src (Homo sapiens, UniProt P12931).
T1 construct: purchased Promega (Madison, WI, USA)
Kind of series: cell-free enzymatic assay (ADP-Glo), c-Src. It is filed as biochemical.
Experimental: (§5) The reactions were carried out in accordance with the manufacturer’s instructions, with minor modifications. The experiments were run using all substrates at least twice the concentration of apparent Km. […] All reactions were run out at 30 °C for 10 min with 10–50 ng of enzyme and 10 µL of 10% DMSO. Protein low-binding tubes were used to prevent peptide adsorption onto the plastic surface. To detect kinase activity, the ADP-Glo Kinase Assay (Promega, Madison, WI, USA) was used according to the manufacturer’s protocol. Into white 384-well plates, reactions were stopped for 50 min at RT by adding 10 µL of ADP-Glo Reagent (Promega, Madison, WI, USA). After 30 min, 20 µL of Detection Reagent (Promega, Madison, WI, USA) was added, and the reaction was read using a GloMax Discover microplate reader (Promega, Madison, WI, USA). […] Compounds analyzed were considered to act as ATP-competitive inhibitors.

Series [16] has as its target T2, Abl (Homo sapiens, UniProt P00519).
T2 construct: purchased Promega (Madison, WI, USA)
As to the kind of experiment: cell-free enzymatic assay (ADP-Glo), Abl. To be noted: 30 µM ATP, 50 µM Abltide. Type of series: biochemical.
Experimental: as §5

T2 sequence (P00519 whole entry): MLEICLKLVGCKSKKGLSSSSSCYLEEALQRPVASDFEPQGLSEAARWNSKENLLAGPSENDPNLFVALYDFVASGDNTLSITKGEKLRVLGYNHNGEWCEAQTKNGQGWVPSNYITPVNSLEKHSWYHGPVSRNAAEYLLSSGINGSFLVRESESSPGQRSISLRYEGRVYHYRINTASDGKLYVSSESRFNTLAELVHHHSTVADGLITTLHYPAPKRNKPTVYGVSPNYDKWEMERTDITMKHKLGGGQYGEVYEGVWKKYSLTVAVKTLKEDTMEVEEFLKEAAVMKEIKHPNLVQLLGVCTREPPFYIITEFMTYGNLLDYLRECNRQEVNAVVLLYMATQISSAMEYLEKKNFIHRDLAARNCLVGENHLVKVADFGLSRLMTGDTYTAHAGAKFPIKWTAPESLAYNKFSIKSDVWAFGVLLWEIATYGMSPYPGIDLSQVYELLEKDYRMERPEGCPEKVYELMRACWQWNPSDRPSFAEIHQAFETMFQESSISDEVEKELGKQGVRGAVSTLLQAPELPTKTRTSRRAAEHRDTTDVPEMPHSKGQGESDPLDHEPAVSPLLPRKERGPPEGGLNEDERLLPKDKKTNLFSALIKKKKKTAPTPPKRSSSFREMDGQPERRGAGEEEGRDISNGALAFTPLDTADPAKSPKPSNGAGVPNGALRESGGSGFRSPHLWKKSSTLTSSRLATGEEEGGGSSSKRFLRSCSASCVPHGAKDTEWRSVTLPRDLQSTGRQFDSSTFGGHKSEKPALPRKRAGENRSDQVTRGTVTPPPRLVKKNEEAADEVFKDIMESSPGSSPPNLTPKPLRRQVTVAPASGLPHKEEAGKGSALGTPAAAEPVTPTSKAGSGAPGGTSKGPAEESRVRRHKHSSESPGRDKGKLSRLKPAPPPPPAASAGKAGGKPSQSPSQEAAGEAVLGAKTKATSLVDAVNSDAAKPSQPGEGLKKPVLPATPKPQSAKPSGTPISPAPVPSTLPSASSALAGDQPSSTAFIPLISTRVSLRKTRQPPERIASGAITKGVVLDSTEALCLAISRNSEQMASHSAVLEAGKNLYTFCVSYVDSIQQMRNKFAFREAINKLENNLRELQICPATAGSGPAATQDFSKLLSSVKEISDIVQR
T1 sequence (P12931 whole entry): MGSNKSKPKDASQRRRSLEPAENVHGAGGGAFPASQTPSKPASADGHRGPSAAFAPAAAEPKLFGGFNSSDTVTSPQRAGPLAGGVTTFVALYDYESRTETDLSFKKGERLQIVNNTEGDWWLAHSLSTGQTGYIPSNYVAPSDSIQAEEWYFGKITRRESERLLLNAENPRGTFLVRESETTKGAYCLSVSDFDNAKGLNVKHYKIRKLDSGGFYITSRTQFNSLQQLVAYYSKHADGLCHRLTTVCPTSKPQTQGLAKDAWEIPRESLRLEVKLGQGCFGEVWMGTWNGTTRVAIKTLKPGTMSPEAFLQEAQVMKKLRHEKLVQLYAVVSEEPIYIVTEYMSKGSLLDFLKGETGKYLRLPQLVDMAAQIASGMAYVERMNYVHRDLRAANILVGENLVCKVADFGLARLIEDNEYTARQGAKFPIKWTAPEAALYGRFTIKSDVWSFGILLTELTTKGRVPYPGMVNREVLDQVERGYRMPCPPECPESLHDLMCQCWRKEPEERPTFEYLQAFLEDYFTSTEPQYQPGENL

Usually IC50 stands for the concentration that inhibits the measured activity by half. As a reminder, the CC50 is the concentration giving 50% cytotoxicity. A lower CC50 goes with harm at low concentration. With `ClC(Cn1ncc2c(NCc3ccccc3)ncnc21)c1ccccc1` (stereo not drawn) [Compound 1], the “Metabolite Formation M1” value in series [1] is 14.5%. Also, the “Metabolite Formation M2” value in series [1] (M2 = M + OH) is listed as less than 0.1%. In addition, the “Metabolite Formation M3” value in series [1] (M3 = M—group bearing NH moiety in R2) is recorded as 2.6%. Besides, the “Metabolite Formation M4” value in series [1] (M4 = M − Cl + OH (−35 + 17)) was 4.5%. Further, the “Metabolic Stability” value in series [1] is recorded as “lower than 80%”. The IC50 in series [2] is 4.3 ± 0.8 µM; in [3], 3.4 ± 0.8 µM; in series [4], 3.6 ± 0.5 µM; in series [7], 2.9 ± 1.1 µM. Besides, the half-maximal cytotoxic concentration (CC50) in series [5] (72 h treatment, MTT) amounted to 86.9 ± 4.2 µM; in series [8], 88.7 ± 5.7 µM. Further, the “CC50 times higher than IC50” value in series [5] (CC50 on FIBRO 2-93 and HaCaT vs IC50 on GBM cells) is on record as 10 times. Besides, the half-maximal cytotoxic concentration (CC50) at 72 h in series [6] and in series [9] was roughly 87 µM throughout.

As usually defined, the Papp is a coefficient for how fast a substance crosses the barrier. High values mean fast passage, low ones slow passage. As for `ClC(Cn1ncc2c(NCc3ccccc3)nc(SCCN3CCOCC3)nc21)c1ccccc1` (stereo not drawn) [Compound 9], the “Metabolite Formation M1” value in [1] is recorded as “M1 = 5 * %”. The half-inhibitory concentration (IC50) in series [2] is 59.4 ± 3.7 µM; in series [3], 58.2 ± 3.4 µM; in series [11], greater than 100 µM; in [4] it was 2.9 ± 0.5 µM. The “QP LogS” value in series [10] is recorded as −5.6 *. For the same compound, the “BBB membrane retention (MR%)” value in series [12] is 6.3%. This compound also gave an apparent permeability (Papp) at 5 h, 500 µM in [12] of 2.6 ×10⁻⁶ cm/s.

A word on the Ki: it is the dissociation constant of the complex between target and ligand, obtained from inhibition or displacement. Low values mean higher affinity, high ones lower affinity. Take `Clc1ccc(C(Cl)Cn2ncc3c(NCCc4ccccc4)ncnc32)cc1` (stereo not drawn) [Compound 10]: the half-maximal inhibitory concentration (IC50) in series [2] was found to be 46.5 ± 4.1 µM; in [3] it was 27.9 ± 2.1 µM; in series [11], 33.9 ± 2.9 µM; in [4], 6.2 ± 1 µM. Moreover, in [13], the “Metabolic Stability” value was determined as 85.9%. In addition, the “GI membrane retention (MR%)” value in series [14] (5 h, pH 7.4) turned out to be 17.2%. Also, the Papp at 5 h, 500 µM was no less than 10 ×10⁻⁶ cm/s in series [14] (pH 7.4, PAMPA) and no less than 10 ×10⁻⁶ cm/s in series [12]. Also, the values for the Ki in series [15] and in [16] were 0.22 ± 0.03 µM and 0.31 ± 0.02 µM, respectively. In series [12], the “BBB membrane retention (MR%)” value worked out at 4.8%.
